Test results published in patent US20120083460A1 (SAN EI GEN F.F.I., INC., priority 2009, published 2012).
Values joined by “and” are separate entries in the source; they are usually repeats but may differ in a detail not shown here. Identical values can stand only once. Like-named read-outs stand apart in the source and are kept apart here. One block for each molecule: values may come before it.

Key:
[1] = Evaluation of fading suppressing effect, fluorescent light irradiation (Experiment Example 4); details: final IQC 0.01% (γ-CD alone 0.14%), drink pH 3.1
Experimental: (§1) Specifically, a colorant-containing acidic drink of the formulation below was prepared. […] The drinks were irradiated with a fluorescent light (BIOTRON LH 300, NK System) or a UV Fade Meter (UV Long-Life Fade Meter FAL-3, Suga Test Instruments Co., Ltd.) for the durations presented in Table 6. Absorbance was measured before and after the irradiation, and the percentage remaining color (%) after the irradiation was calculated. Further, as a control test, a colorant-containing acidic drink was irradiated with the UV Fade Meter or fluorescent light as above without adding anything (no addition), and the percentage remaining color (%) after the irradiation was calculated.

[2] = Evaluation of preservation stability (presence or absence of deposits) in acid and sugar solution (Experiment Example 3); assay type: physicochemical; set-up: key: +: the presence of deposits; −: the absence of deposits; ×: no dissolution in the acid and sugar solution; details: 30 days
Experimental: Each solution was hot-packed in a 200-ml PET bottle (93° C.). The drink so prepared was allowed to cool, and placed under 50° C., room temperature (25±2° C.), and low-temperature (5° C.) conditions for 30 days. The presence or absence of deposits was then checked by visual inspection.
The drink so prepared was allowed to cool, and placed under 50° C., room temperature (25±2° C.), and low-temperature (5° C.) conditions for 30 days. The presence or absence of deposits was then observed.
In the table, the symbol “+” means the presence of deposits, and “−” the absence of deposits. The symbol “×” means no dissolution in the acid and sugar solution.

[3] = Evaluation of IQC composition solubility in water (Experiment Example 1); assay type: physicochemical; details: for Solubility (in terms of isoquercitrin, mg/ml): water, shaken at 25° C. for 40 hours, solution pH 4.7-5.7 (Table 1)
Experimental: The Samples were added until they could not be dissolved further and formed deposits. Each solution was shaken at 25° C. for 40 hours, and centrifuged at 9,000 rpm for 10 min to collect the supernatant. The supernatant was appropriately diluted with a 0.1% phosphoric acid aqueous solution, and absorbance (340 nm) was measured.

[4] = Evaluation of water solubility with α- and β-cyclodextrins (Reference Experiment Example); assay type: physicochemical; details: water (25° C.), method of Experiment Example 1
[5] = Evaluation of the solubility of other flavonoids in water (Experiment Example 2); assay type: physicochemical
Experimental: The solubility (mg/ml) of each composition in water in terms of the flavonoid was then determined according to the method of Experiment Example 1. The solubility (mg/ml) of the flavonoid itself in water was also determined as a control, and the solubility (fold) was calculated from the relative ratio of the two.

[6] = Absorption in the body: IQC metabolites in plasma after oral administration (Experiment Example 6); assay type: in vivo; details: 375 mg IQC equivalent, person n=1
Experimental: After 1, 2, and 3 hours from the administration, bloods were collected using heparin as anti-coagulant from the person, and centrifuged to obtain plasmas.
About 29,000 unit/ml β-glucuronidase (20 μl) dissolved in 0.58 M sodium acetate buffer (pH 4.9) was added to the plasma (180 μl), and the mixture was left unattended at 37° C. for 30 min. After adding 1 M AsA/10 mM sodium metaphosphate (50 μl, in terms of phosphoric acid) and 20 μg/ml diosmetin (9 μl), the mixture was frozen at −80° C., and freeze dried overnight. The freeze dried sample was suspended in MeOH (1 ml), and centrifuged at 15,000 rpm for 10 min. The supernatant was concentrated and dried, and dissolved in MeOH (90 μl). After adding 200 mM HCl (90 μl), the solution was centrifuged at 15,000 rpm for 10 min to collect the supernatant. The IQC metabolites quercetin, isorhamnetin, and tamarixetin in the plasma were then quantified by HPLC under the conditions below.

[7] = Evaluation of flavor deterioration suppressing effect, sensory evaluation by six panelists (Experiment Example 5); details: drinks of formulations 1 to 7, IQC added as it is, final IQC 0.01%
Experimental: In the same manner, γ-CD (Wacker Chemical) was added to each drink in a final concentration of 0.14% to prepare a drink that contained γ-CD.
The drinks prepared as above were tested under the severity conditions presented in Table 9, and changes in drink flavor after the test were examined by six panelists in a sensory evaluation. Evaluations were made according to the following criteria on the scale of 1 (stress tested drink (blank) without any addition) to 5 (each drink before the test).
Table 9 presents means values of the scored points evaluated by the six panelists.

[8] = Evaluation of fading suppressing effect, UV Fade Meter irradiation (Experiment Example 4); details: final IQC 0.01% (γ-CD alone 0.14%), drink pH 3.1
Experimental: as §1

[9] = Cochineal colorant, fluorescence irradiation 6 D
[10] = Elderberry colorant, fluorescence irradiation 2 D
[11] = Grape juice colorant, fluorescence irradiation 20 D
[12] = Paprika colorant, fluorescence irradiation 1 D
[13] = Purple corn colorant, fluorescence irradiation 1 D
[14] = Purple sweet potato colorant, fluorescence irradiation 8 D
[15] = Red cabbage colorant, fluorescence irradiation 4 D
[16] = Safflower yellow colorant, fluorescence irradiation 4 D
[17] = β-carotene, fluorescence irradiation 6 D
[18] = Cochineal colorant, UV fade meter irradiation 6 H
[19] = Elderberry colorant, UV fade meter irradiation 2 H
[20] = Grape juice colorant, UV fade meter irradiation 20 H
[21] = Paprika colorant, UV fade meter irradiation 3 H
[22] = Purple corn colorant, UV fade meter irradiation 4 H
[23] = Purple sweet potato colorant, UV fade meter irradiation 7 H
[24] = Red cabbage colorant, UV fade meter irradiation 8 H
[25] = Safflower yellow colorant, UV fade meter irradiation 4 H
[26] = β-carotene, UV fade meter irradiation 17 H

Compound: O=c1c(O[C@@H]2O[C@H](CO)[C@@H](O)[C@H](O)[C@H]2O)c(-c2ccc(O)c(O)c2)oc2cc(O)cc(O)c12 [IQC, isoquercitrin]
percentage remaining color (%) [1, 9]: 75.6%
percentage remaining color (%) [1, 10]: 64.5%
percentage remaining color (%) [1, 11]: 91.1%
percentage remaining color (%) [1, 12]: 91.3%
percentage remaining color (%) [1, 13]: 76.4%
percentage remaining color (%) [1, 14]: 76.9%
percentage remaining color (%) [1, 15]: 60.1%
percentage remaining color (%) [1, 16]: 72.8%
percentage remaining color (%) [1, 17]: 71.2%
presence or absence of deposits ([2]; pH 6, 50° C., flavonoid concentration 0.05%): −
presence or absence of deposits ([2]; pH 6, Refrigerated (5° C.), flavonoid concentration 0.05%): +
presence or absence of deposits ([2]; pH 6, Room temperature, flavonoid concentration 0.05%): +
presence or absence of deposits ([2]; pH 9, 50° C., flavonoid concentration 0.05%): −
presence or absence of deposits ([2]; pH 9, 50° C., flavonoid concentration 0.10%): −
presence or absence of deposits ([2]; pH 9, Refrigerated (5° C.), flavonoid concentration 0.05%): +
presence or absence of deposits ([2]; pH 9, Refrigerated (5° C.), flavonoid concentration 0.10%): +
presence or absence of deposits ([2]; pH 9, Room temperature, flavonoid concentration 0.05%): −
presence or absence of deposits ([2]; pH 9, Room temperature, flavonoid concentration 0.10%): +
upper limit solubility in water ([3]; acidic condition at 25° C.): 0.0102 mass %
Solubility (in terms of isoquercitrin, mg/ml) [3]: 0.1020 mg/mL
Solubility (in terms of isoquercitrin, mg/ml) ([3]; listed as Control): 0.10 mg/mL
Solubility (in terms of isoquercitrin, mg/ml) ([3]; listed as isoquercitrin): 0.102 mg/mL
Solubility (in terms of isoquercitrin, mg/ml) [4]: 0.10 mg/mL
Solubility (fold) (in terms of flavonoids) ([5]; Flavonoid:γ-CD = 1:0 (mole ratio), flavonoid itself = reference 1): 1 fold
Isorhamnetin in plasma ([6]; blood collection time 0 h): 0 µg/mL
Quercetin in plasma ([6]; blood collection time 0 h): 0.02 µg/mL
Tamarixetin in plasma ([6]; blood collection time 0 h): 0 µg/mL
Total flavonoid (quercetin, isorhamnetin, tamarixetin) in plasma ([6]; blood collection time 0 h): 0.02 µg/mL
Isorhamnetin in plasma ([6]; blood collection time 1 h): 0 µg/mL
Quercetin in plasma ([6]; blood collection time 1 h): 0.01 µg/mL
Tamarixetin in plasma ([6]; blood collection time 1 h): 0 µg/mL
Total flavonoid (quercetin, isorhamnetin, tamarixetin) in plasma ([6]; blood collection time 1 h): 0.01 µg/mL
Isorhamnetin in plasma ([6]; blood collection time 2 h): 0.02 µg/mL
Quercetin in plasma ([6]; blood collection time 2 h): 0.15 µg/mL
Tamarixetin in plasma ([6]; blood collection time 2 h): 0.06 µg/mL
Total flavonoid (quercetin, isorhamnetin, tamarixetin) in plasma ([6]; blood collection time 2 h): 0.2 µg/mL and 0.22 µg/mL
Isorhamnetin in plasma ([6]; blood collection time 3 h): 0.01 µg/mL
Quercetin in plasma ([6]; blood collection time 3 h): 0.15 µg/mL
Tamarixetin in plasma ([6]; blood collection time 3 h): 0.03 µg/mL
Total flavonoid (quercetin, isorhamnetin, tamarixetin) in plasma ([6]; blood collection time 3 h): 0.20 µg/mL
AUC ([6]; total metabolites in plasma, 0-3 h): 0.34 (μg/ml)·hr
IQC deposits in the prepared drink [7]: deposits were observed within several hours
percentage remaining color (%) [8, 18]: 91.1%
percentage remaining color (%) [8, 19]: 70.2%
percentage remaining color (%) [8, 20]: 93.1%
percentage remaining color (%) [8, 21]: 55.8%
percentage remaining color (%) [8, 22]: 59.8%
percentage remaining color (%) [8, 23]: 88.0%
percentage remaining color (%) [8, 24]: 50.8%
percentage remaining color (%) [8, 25]: 71.6%
percentage remaining color (%) [8, 26]: 74.2%

Compound: OC[C@H]1O[C@@H]2O[C@H]3[C@H](O)[C@@H](O)[C@@H](O[C@H]4[C@H](O)[C@@H](O)[C@@H](O[C@H]5[C@H](O)[C@@H](O)[C@@H](O[C@H]6[C@H](O)[C@@H](O)[C@@H](O[C@H]7[C@H](O)[C@@H](O)[C@@H](O[C@H]8[C@H](O)[C@@H](O)[C@@H](O[C@H]9[C@H](O)[C@@H](O)[C@@H](O[C@H]1[C@H](O)[C@H]2O)O[C@@H]9CO)O[C@@H]8CO)O[C@@H]7CO)O[C@@H]6CO)O[C@@H]5CO)O[C@@H]4CO)O[C@@H]3CO [γ-CD, γ-cyclodextrin]
percentage remaining color (%) [1, 9]: 71.5%
percentage remaining color (%) [1, 10]: 66.2%
percentage remaining color (%) [1, 11]: 88.1%
percentage remaining color (%) [1, 12]: 90.3%
percentage remaining color (%) [1, 13]: 69.2%
percentage remaining color (%) [1, 14]: 75.6%
percentage remaining color (%) [1, 15]: 54.0%
percentage remaining color (%) [1, 16]: 69.2%
percentage remaining color (%) [1, 17]: 60.6%
percentage remaining color (%) [8, 18]: 80.8%
percentage remaining color (%) [8, 19]: 65.2%
percentage remaining color (%) [8, 20]: 88.7%
percentage remaining color (%) [8, 21]: 37.6%
percentage remaining color (%) [8, 22]: 36.2%
percentage remaining color (%) [8, 23]: 79.4%
percentage remaining color (%) [8, 24]: 25.1%
percentage remaining color (%) [8, 25]: 62.4%
percentage remaining color (%) [8, 26]: 60.5%

The next lines start with the values.

Solubility (fold) (in terms of flavonoids) [5]: 1 fold
Compound: O=c1c(O)c(-c2cc(O)c(O)c(O)c2)oc2cc(O)cc(O)c12 [Myricetin, myricetin]

Solubility (fold) (in terms of flavonoids) [5]: 1 fold
Compound: C[C@@H]1O[C@@H](O[C@H]2[C@H](Oc3cc(O)c4c(c3)O[C@H](c3ccc(O)cc3)CC4=O)O[C@H](CO)[C@@H](O)[C@@H]2O)[C@H](O)[C@H](O)[C@H]1O [Naringin, naringin]

Solubility (fold) (in terms of flavonoids) [5]: 1 fold
Compound: O=c1c(O)c(-c2ccc(O)c(O)c2)oc2cc(O)cc(O)c12 [Quercetin, quercetin]
